Measurements from the supplement of paper PMC8671470.

Key:
Conditions in all cases: 72 h
[1] = test system: K-562
Summary of the method: (§1)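 In 384-well plates holding acoustically pre-printed compounds at five tenfold doses from 1 to 10,000 nM, in duplicate, fifteen myeloid leukaemia cell lines were grown in RPMI 1640 for 72 h at 37 °C with 5% CO2. Luminescent ATP viability was scaled between vehicle and a positive control at 10 µM. The IC50 was then taken from log-logistic dose–response fits with four parameters.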

[2] = test system: KU-812
Summary of the method: as §1

[3] = test system: MV4-11
Summary of the method: as §1

[4] = test system: Mono-Mac-6
Summary of the method: as §1

[5] = test system: NOMO-1
Summary of the method: as §1

[6] = test system: HL-60; assay: cell viability (% survival relative to DMSO control); higher = less cytotoxic
Summary of the method: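 In 384-well plates, the full library was rescreened in duplicate on HL-60 cells in RPMI 1640 with 10% FBS, at 1–10,000 nM in five tenfold concentrations, for 72 h at 37 °C, 5% CO2. Each run also held DMSO or 100 nM of one of three metabolic inhibitors. Viability was measured by CellTiter-Glo and normalised to DMSO wells and to wells with proteasome inhibitor, present at 10 μM. Any area under the curve comes from four-parameter log-logistic fitting with drc and PharmacoGx.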

[7] = test system: BV-173; assay: cell viability (% survival relative to DMSO control, bortezomib = 0%); higher = less cytotoxic
Summary of the method: (§2)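 Percent survival is reported as the mean of duplicate wells. Cells from 10 AML and 5 CML lines were plated in 384-well plates containing compounds at 1, 10, 100, 1000 or 10000 nM and kept for 72 h at 37 °C in 5% CO2. Readout used CellTiter-Glo luminescence, scaled so that vehicle equals 100% and a 10 µM positive control equals 0%.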

[8] = test system: HEL; assay: as above
Summary of the method: as §2

[9] = test system: HL-60; assay: as above
Summary of the method: as §2

[10] = test system: K-562; assay: as above
Summary of the method: as §2

[11] = test system: KCL-22; assay: as above
Summary of the method: as §2

[12] = test system: KG-1; assay: as above
Summary of the method: as §2

[13] = test system: KU-812; assay: as above
Summary of the method: as §2

[14] = test system: LAMA-84; assay: as above
Summary of the method: as §2

[15] = test system: ML-2; assay: as above
Summary of the method: as §2

[16] = test system: MOLM-13; assay: as above
Summary of the method: as §2

[17] = test system: MV4-11; assay: as above
Summary of the method: as §2

[18] = test system: Mono-Mac-6; assay: as above
Summary of the method: as §2

[19] = test system: NOMO-1; assay: as above
Summary of the method: as §2

[20] = test system: SHI-1; assay: as above
Summary of the method: as §2

[21] = test system: THP-1; assay: as above
Summary of the method: as §2

O=C1c2cc([N+](=O)[O-])ccc2-n2c1nc1ccccc1c2=O [GNF-Pf-3777]
Conditions	IC50 (cell viability) [nM]
[1]	1110
[2]	1310
[3]	1500
[4]	1780
[5]	5990

cell viability [%], [6]
Conditions	0.001 µM	0.01 µM	0.1 µM	1 µM	10 µM
co-treatment: AZD3965 100 nM	103	100	105	89	2.3
co-treatment: DMSO vehicle	94.3	102	103	91.6	12.6
co-treatment: GSK2194069 100 nM	103	98.4	88.8	80.8	8.8
co-treatment: pictilisib 100 nM	95.5	101.2	92.2	78.63	6.29

cell viability [%]
Conditions	1 nM	10 nM	100 nM	1000 nM	10000 nM
[7]	95.9	104	89.5	66.4	4.9
[8]	98.5	105	105	53.1	13.6
[9]	89.7	92.2	105	59.1	0.853
[10]	102	100	103	56.2	4.1
[11]	87.9	115	102	37	21.2
[12]	99.6	95.6	110	67.1	27.6
[13]	91.6	91.1	87.9	53.4	6.51
[14]	97.5	102	96.1	71.3	32.8
[15]	96.7	99	97.8	94.1	28.8
[16]	99.5	122	108	75.8	18
[17]	106	101	97.1	67.5	2.64
[18]	86.3	104	90.9	66.3	6.53
[19]	92.3	99.9	90.3	86.7	31.8
[20]	99.9	104	92	66.6	16.5
[21]	103	92.2	85.6	62.3	30.9

CC(C)c1cc2c(c(O)c1O)[C@@]1(C(=O)O)CCCC(C)(C)[C@@H]1CC2 [Carnosic acid]
Conditions	IC50 (cell viability) [nM]
[1]	> 10000
[2]	> 10000
[3]	> 10000
[4]	> 10000
[5]	> 10000

cell viability [%], [6]
Conditions	0.001 µM	0.01 µM	0.1 µM	1 µM	10 µM
co-treatment: AZD3965 100 nM	98.3	101	117	98.58	100
co-treatment: DMSO vehicle	96.16	100.2	99.2	97.53	103
co-treatment: GSK2194069 100 nM	101	89.4	105	99.3	95.3
co-treatment: pictilisib 100 nM	93.2	102	97.6	96.1	116

cell viability [%]
Conditions	1 nM	10 nM	100 nM	1000 nM	10000 nM
[7]	87.5	96.7	98.2	82.6	43.8
[8]	100	112	92.1	100	97.4
[9]	99.7	97.3	89.3	91.5	109
[10]	105	93.4	89.4	87.4	83.2
[11]	101	104	73.1	103	90.7
[12]	92.4	96	96	104	103
[13]	94.3	100	89.4	92.6	74.1
[14]	97.7	98	102	91.1	96.6
[15]	93.4	105	85.9	94.5	67.6
[16]	101	120	84.7	124	106
[17]	98.5	103	93.5	91.7	79.9
[18]	92.7	102	103	90.4	64.3
[19]	96.5	100	96.9	99	102
[20]	101	112	95	112	108
[21]	98.3	101	109	83.9	66.9

Nc1nc(Cl)nc2c1ncn2[C@H]1C[C@H](O)[C@@H](CO)O1 [Cladribine]
Conditions	IC50 (cell viability) [nM]
[1]	219
[2]	98.9
[3]	20.2
[4]	21.2
[5]	52.9

cell viability [%], [6]
Conditions	0.001 µM	0.01 µM	0.1 µM	1 µM	10 µM
co-treatment: AZD3965 100 nM	100	104	67.648	3.68	3.27
co-treatment: DMSO vehicle	101	104	88.9	3.39	4.06
co-treatment: GSK2194069 100 nM	98.2	101	62.7	3.78	4.3
co-treatment: pictilisib 100 nM	98.9	102	37.1	3.81	3.84

cell viability [%]
Conditions	1 nM	10 nM	100 nM	1000 nM	10000 nM
[7]	128	4.77	-0.0212	0.000225	-0.197
[8]	105	99.2	3.91	0.404	0.141
[9]	108	88.3	26.6	1.62	-0.177
[10]	110	97.5	79.8	28.8	20.5
[11]	114	111	68.9	15.6	7.11
[12]	101	105	102	9.9	5.04
[13]	112	101	53.3	16.5	5.32
[14]	112	100	51.1	5.53	1.72
[15]	117	100	85.5	7.04	2.51
[16]	100	87.2	4.48	0.607	-0.282
[17]	129	81	-0.607	-0.0489	-0.0474
[18]	113	82.5	1.25	0.0892	-0.125
[19]	111	101	21.5	1.41	0.34
[20]	87.7	88.7	13.6	0.494	-0.0158
[21]	102	93.7	102	24.2	26.3

COC(=O)[C@]12CCC(C)(C)C[C@H]1[C@H]1C(=O)C=C3[C@@]4(C)C=C(C#N)C(=O)C(C)(C)[C@@H]4CC[C@@]3(C)[C@]1(C)CC2 [Bardoxolone methyl]
Conditions	IC50 (cell viability) [nM]
[1]	> 10000
[2]	9500
[3]	> 10000
[4]	790
[5]	> 10000

cell viability [%], [6]
Conditions	0.001 µM	0.01 µM	0.1 µM	1 µM	10 µM
co-treatment: AZD3965 100 nM	101	98	110	90.8	32.6
co-treatment: DMSO vehicle	102.3	97.6	101	97.8	107
co-treatment: GSK2194069 100 nM	100	92.7	104	88.8	54.3
co-treatment: pictilisib 100 nM	98.9	78.7	73.5	78.4	0.653

cell viability [%]
Conditions	1 nM	10 nM	100 nM	1000 nM	10000 nM
[7]	89.7	102	116	61	5.94
[8]	106	92.6	117	84.7	-0.0991
[9]	114	91.8	112	93.6	94.2
[10]	106	97.5	114	98.8	86.9
[11]	100	107	112	56.2	0.0358
[12]	96.6	101	117	53.5	1.37
[13]	84.9	104	113	91.3	59.2
[14]	98.9	96.1	107	106	86
[15]	91.7	103	113	73.1	-0.425
[16]	107	81.7	118	91.9	87.5
[17]	113	111	112	94.3	96.9
[18]	82.9	103	123	44.6	13.7
[19]	99.4	99.3	115	101	80.8
[20]	107	103	118	106	94.3
[21]	95.2	104	108	81.6	56.3

COc1ccc(C(=O)Nc2c(Cl)cncc2Cl)cc1OC1CCCC1 [Piclamilast]
Conditions	IC50 (cell viability) [nM]
[1]	> 10000
[2]	> 10000
[3]	> 10000
[4]	> 10000
[5]	> 10000

cell viability [%], [6]
Conditions	0.001 µM	0.01 µM	0.1 µM	1 µM	10 µM
co-treatment: AZD3965 100 nM	104	104	95.5	105	107
co-treatment: DMSO vehicle	101	100.9	98.4	97.54	104.6
co-treatment: GSK2194069 100 nM	101.3	100	98.8	97.1	109.3
co-treatment: pictilisib 100 nM	107	107	96.4	95.35	106

cell viability [%]
Conditions	1 nM	10 nM	100 nM	1000 nM	10000 nM
[7]	86.3	107	92.1	114	99.7
[8]	95.3	108	102	119	109
[9]	87.1	103	65.2	87.5	115
[10]	90.5	111	90.7	108	83.1
[11]	95.3	101	92.7	102	108
[12]	97.7	102	86	99.2	104
[13]	91.4	94.6	90	105	99.1
[14]	87.5	114	91.2	110	103
[15]	84.4	104	102	88.2	110
[16]	89.2	110	67.4	103	88.1
[17]	92.5	110	92.8	118	114
[18]	93.6	107	80.6	100	87.7
[19]	87.1	104	94.6	97.1	110
[20]	94.1	105	106	99.3	113
[21]	94	104	97.6	102	109
